Patent US9079859B2, “Synthetic lethal targeting of glucose transport” (AUCKLAND UNISERVICES LIMITED, priority 2011, dated 2015)

Key:
[1] = tested on: RCC4 cells; test: XTT cell viability assay, RCC4; type: cell-based; settings: four days of treatment; compared to RCC4/VHL; concentration-dependent
Description: Cell Viability Assays. For 2,3-bis[2-methoxy-4-nitro-5-sulfophenyl]-2H-tetrazolium-5-carboxanilide (XTT) assays, five thousand cells were plated in 96-well plates. The next day, vehicle (DMSO) or drug was added by serial dilution. Four days later, media were aspirated, XTT solution (0.3 mg/ml of XTT (Sigma), […] N-methyl dibenxopyrazine methyl sulfate (Sigma) in phenol red-free media) was added, and the plates were incubated at 37° C. for 1-2 hours. Metabolism of XTT was quantified by measuring the absorbance at 450 nm. IC50s were calculated using linear interpolation. For clonogenic survival assays, three hundred cells were plated per 60 mm tissue culture dish. The cells were allowed to attach overnight and then treated with vehicle or drug for 14 days. Colonies were fixed and stained with crystal violet (0.1% crystal violet in 95% ethanol). All conditions were measured in triplicate and each experiment was done in duplicate or triplicate. To determine necrosis, cells were treated with drug for a given time point. Media and cells were collected, centrifugated, and resuspended in 0.4% trypan blue (Invitrogen). Live and dead cells were counted on a hematocytometer.

[2] = tested on: RCC4/VHL cell clones overexpressing HIF; test: Sensitivity of RCC4/VHL clones overexpressing HIF; type: cell-based; settings: non-degradable, constitutively active HIF; two clones
Description: The hypoxia-inducible factor (HIF) family of transcription factors are VHL targets and we next examined whether toxicity was HIF-dependent (Iliopoulos et al., Nat Med., 1: 822-826 (1995); Maxwell et al., Nature, 399:271-275 (1999); Zimmer et al., Mol Cancer Res., 2:89-95 (2004)). A non-degradable, constitutively active HIF was overexpressed in RCC4/VHL cells. Two individual HIF-overexpressing clones were tested for their sensitivity to STF-31 (Sutphin et al., Cancer Res 67:5896-5905 (2007)). […] Furthermore, the sensitivity of RCCs that lack functional VHL to STF-31 is directly linked to the aberrant up-regulation of HIF.

[3] = tested on: RCC4 and RCC4/VHL cells; test: Apoptosis (nuclear condensation, annexin V / propidium iodide); type: cell-based; settings: VHL-deficient and wild-type VHL RCCs, DAPI
[4] = tested on: VHL-deficient cells; test: Extracellular acidification rate, VHL-deficient cells; type: cell-based; set-up: dose or concentration left out as unconfirmed; settings: VHL-deficient cells vs control-treated; 48 hours
Description: HIF is important to adapting to low oxygen conditions through the transcription of many genes, including those involved in glucose metabolism. It was hypothesized that STF-31 might inhibit metabolic pathways, leading to necrotic cell death. To examine whether this compound alters glycolysis, intracellular lactate, which is rapidly converted from the glycolysis end product pyruvate, and extracellular acidification were measured. Baseline levels of glycolysis were lower in wild-type VHL cells compared to VHL-deficient cells (FIGS. 2, A and B), likely a result of the constitutive expression of HIF and subsequent overexpression of glucose transporters and glycolytic enzymes in the latter.

[5] = tested on: RCC4 cells; test: Glucose uptake (2-deoxy-D-[3H]glucose), RCC4; type: cell-based
Description: (§1) Glucose Uptake. One hundred thousand cells were plated per well in a six-well plate. The next day, cells were treated with the indicated concentration of drug and incubated for the indicated time. Cells were then washed twice with phosphate-buffered saline, incubated in low-glucose medium for 30 minutes, and 3H-2-deoxyglucose (0.5 μCi) was added in 1 ml of glucose-free media for an additional hour. Cells were washed twice in PBS and lysed (0.2 N NaOH and 0.2% sodium dodecyl sulfate). Glucose uptake was quantified with a scintillation counter.

[6] = tested on: 786-O cells; test: Glucose uptake (2-deoxy-D-[3H]glucose), 786-O; type: cell-based; settings: 5 μM (FIG. 6C)
Description: as §1

[7] = tested on: RCC4/VHL cells; test: Glucose uptake (2-deoxy-D-[3H]glucose), RCC4/VHL; type: cell-based
Description: as §1

[8] = tested on: RCC4 cells with HIF-1β silenced; test: Glucose uptake in RCC4 cells with siRNA to HIF-1β; type: cell-based
Excerpt: To further investigate the relationship between HIF and STF-31 toxicity, we silenced HIF-1β in RCC4 cells and assessed its affect on glucose uptake (FIG. 6D). Transiently inhibiting HIF-1β, the constitutively expressed binding partner of HIF-1α and HIF-2α reduces HIF activity in RCC4 cells to the levels found in wild-type VHL cells. Glucose uptake was insensitive to treatment with STF-31 when the HIF-1β was silenced in RCC4 cells, further supporting the concept that the HIF-dependent glucose uptake was responsible for the differential toxicity of STF-31 to VHL-deficient renal carcinomas (FIG. 2E).
as §1

[9] = tested on: VHL-deficient cells; test: ATP levels (bioluminescence assay); type: cell-based
Description: (§2) Cell Culture and Reagents. All cells were grown in DMEM+10% FCS. ACHN and ACHN shVHL were a kind gift from George V. Thomas (UCLA). HIF overexpressing clones were described previously (Sutphin et al., Cancer Res, 67:5896-5905 (2007)). Transfection of RNA oligos were performed with DnarmaFECT Reagent 1 (Dharmcon), according to manufacturer's directions. ON-TARGETplus SMART pools against HIF-1 R/ARNT were purchased from Dharmacon. Inducible shRNAmir to GLUT1 was purchased from Open Biosystems. GLUT1 was detected with anti-GLUT1 antibody from NeoMarkers/LabVision/Fisher. For immunofluorescent studies, GLUT1, GLUT2, and GLUT3 antibodies were purchased from R&D. Pyruvate/lactate levels and hexokinase activity were both measured by fluorometric assay (BioVision and Sigma-Aldrich, respectively). ATP levels were measured by bioluminescence assay (ATP Determination Kit from Molecular Probes/Invitrogen). In vitro kinase activities were performed by Millipore Kinase Profiler.

[10] = molecular target: 50 different kinases; test: In vitro kinase panel (Millipore Kinase Profiler); type: biochemical
Description: as §2

[11] = tested on: SN12C shVHL; test: RCC panel sensitivity (Table 2); type: cell-based; settings: VHL silenced
[12] = increasing concentrations of STF-31

CC(C)(C)c1ccc(S(=O)(=O)NCc2ccc(C(=O)Nc3cccnc3)cc2)cc1 [STF-31]
number of RCC4 cells (cell viability by XTT) [1]: significant decrease | effect of ectopic HIF expression in wild-type VHL cells on response to STF-31 [2]: sensitized | nuclear condensation [3]: no nuclear condensation | inhibition of extracellular acidification [4]: about 60% | glucose uptake in RCC4 cells ([5]; 2-deoxy-D-[3H]glucose): impaired | glucose uptake in RCC4 cells versus concentration [5, 12]: dose-dependent | glucose uptake in 786-O cells [6]: impaired | glucose uptake in RCC4/VHL cells ([7]; 2-deoxy-D-[3H]glucose): unaffected | glucose uptake in RCC4/VHL cells versus concentration [7, 12]: relatively stable | glucose uptake when HIF-1β was silenced in RCC4 cells [8]: insensitive | inhibition of ATP production versus concentration [9]: dose-dependent | decrease in ATP levels ([9]; VHL-deficient cells): 75% | kinase inhibition across 50 different kinases [10]: no significant decrease | 3-series sensitivity (sensitivity to STF-31) [11]: Yes
